Data on 19 compounds can be found in BindingDB's records for doi:10.1111/cbdd.12207 (Nirma University, 2014).

pIC50: −log10 of the molar value.

By pIC50 is commonly meant the negative decadic logarithm of the IC50, by convention in mol/L. A high value points to a low IC50.

The assay has as its target T1, Gag-Pol polyprotein [1148-1435] (Human immunodeficiency virus 1, UniProt P04585).
T1 construct: 1148-1435
Briefly: HIV-1 Integrase Assay. On the procedure:
HIV-1 integrase inhibitory activity of compounds were determined using strand transferase inhibitory assay.
In turn, `O=C1C(=O)c2ccccc2C(=O)C1=Cc1c(O)c(O)c2ccccc2c1O` [2-hydroxy-3-[(3-hydroxy-1,4-dioxonaphthalen-2-yl)methyl]naphthalene-1,4-dione (Compound 10)] had a pIC50 of 4.70. `O=C(NNC(=O)c1cccc(O)c1O)c1ccccc1O` [2,3-dihydroxy-N'-(2-hydroxybenzoyl)benzohydrazide (Compound 17)]: the pIC50 is 6.30. Compared with the last compound, the pIC50 is 1.60 log units higher. The value for `O=C(O)C(=O)CC(=O)c1cn(Cc2ccc(F)cc2)c2ccc(F)cc2c1=O` [(2Z)-4-{6-fluoro-1-[(4-fluorophenyl)methyl]-4-oxoquinolin-3-yl}-2-hydroxy-4-oxobut-2-enoic acid (Compound 9)] was 5.64; that for `Cn1c(=O)c(C(=O)O)c(O)c2cc(-c3ccc(F)cc3)ccc21` [6-(4-fluorophenyl)-4-hydroxy-1-methyl-2-oxoquinoline-3-carboxylic acid (Compound 6)] was 4.64. The value for `O=C(Nc1ncnc2c1ncn2Cc1ccc(F)cc1)c1ccc2cccnc2c1O` [N-{9-[(4-fluorophenyl)methyl]purin-6-yl}-8-hydroxyquinoline-7-carboxamide (Compound 20)] was 4.95; that for `O=c1oc2ccccc2c(O)c1C1c2ccccc2Oc2c1c(=O)oc1ccccc21` (centres undefined) was 3.91; that for `O=C(O)C(=O)CC(=O)c1c[nH]c2ccc(Cl)cc12` was 6.28. The value for `COc1cc2c(cc1OC)C(=O)N1CSCC1C(=O)S2` (centres undefined) [12,13-dimethoxy-5,9-dithia-3-azatricyclo[8.4.0.0 ,⁷]tetradeca-1(14),10,12-triene-2,8-dione (Compound 8)] was 3.48. `O=C(NO)c1ccc2c(c1)CCN2Cc1ccc(F)cc1F` [1-[(2,4-difluorophenyl)methyl]-N-hydroxy-2,3-dihydroindole-5-carboxamide (Compound 1)] had a pIC50 of 4.08. With `O=C1c2ccccc2C(C2CCCCC2)C(=O)N1O` (centres undefined) [4-cyclohexyl-2-hydroxy-4H-isoquinoline-1,3-dione (Compound 3)] the figure was 5.87; with `O=C(O)C(=O)CC(=O)c1cc(OCc2ccccc2)cc(OCc2ccccc2)c1`, 7.23. The value for `COC(=O)c1ccc2cc(CCc3ccc(O)c(O)c3)oc2c1` [methyl 2-[2-(3,4-dihydroxyphenyl)ethyl]-1-benzofuran-6-carboxylate (Compound 18)] was 4.36; that for `O=C(NNCc1ccccc1O)c1ccccc1O` [2-hydroxy-N'-[(2-hydroxyphenyl)methyl]benzohydrazide (Compound 4)] was 6.15; that for `O=C(NCc1cc2ccccc2s1)c1nc(-c2cccs2)nc(O)c1O` [N-(1-benzothiophen-2-ylmethyl)-5,6-dihydroxy-2-(thiophen-2-yl)pyrimidine-4-carboxamide (Compound 12)] was 8.00. With `COC(=O)c1ccc(CC(=O)c2cc(C=O)c(O)cc2C)c(C)c1O` [methyl 4-[2-(5-formyl-4-hydroxy-2-methylphenyl)-2-oxoethyl]-2-hydroxy-3-methylbenzoate (Compound 5)] the figure was 3.91; with `C=c1[nH]n(C(=O)c2ccc(Cl)cc2)c(=O)c1=Cc1ccc(O)cc1`, 3.53.

In the case of `O=C(NCc1ccc(Cl)c(Cl)c1)c1nc(-c2cccs2)nc(O)c1O` [N-[(3,4-dichlorophenyl)methyl]-5,6-dihydroxy-2-(thiophen-2-yl)pyrimidine-4-carboxamide (Compound 14)], the pIC50 was 8.00. Against the preceding compound, the pIC50 is 4.47 log units higher. With `Oc1ccccc1CNNCC(O)COc1ccccc1` (centres undefined) [2-{[2-(2-hydroxy-3-phenoxypropyl)hydrazin-1-yl]methyl}phenol (Compound 15)] the figure was 3.70; with `O=C1/C(=C\c2cccc(O)c2)C=NN1C(=O)c1ccccc1O` [(4Z)-2-(2-hydroxybenzoyl)-4-[(3-hydroxyphenyl)methylidene]pyrazol-3-one (Compound 11)], 5.13.
